This note sets out measurements from ChEMBL document CHEMBL5726139, “Heterocyclic compounds and methods of their use” (2017).

pIC50: −log10 of the molar value.

The target of this experiment is T1, Type-2 angiotensin II receptor (Homo sapiens, UniProt P50052).
T1 sequence (P50052 whole entry): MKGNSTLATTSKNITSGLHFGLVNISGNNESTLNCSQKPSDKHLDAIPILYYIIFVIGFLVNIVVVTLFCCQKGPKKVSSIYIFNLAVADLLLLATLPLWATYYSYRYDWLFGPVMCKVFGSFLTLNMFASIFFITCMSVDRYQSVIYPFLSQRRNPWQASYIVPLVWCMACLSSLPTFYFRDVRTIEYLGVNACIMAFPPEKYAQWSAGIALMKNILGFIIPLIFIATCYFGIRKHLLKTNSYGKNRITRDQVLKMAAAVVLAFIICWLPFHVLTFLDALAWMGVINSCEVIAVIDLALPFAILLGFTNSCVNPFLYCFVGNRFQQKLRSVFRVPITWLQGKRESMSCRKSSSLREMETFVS
The experiment is described as follows: Receptor Binding Assay: 120 μL membrane ([…]) was incubated with 15 μL of [125I]-CGP42112A and 15 μL of compound at RT for 1.5 hrs. The binding reaction was stopped by rapid filtration through Unifilter GF/C plates (presoaked in 0.3% (v:v) BSA). Plate was washed three times with ice cold wash buffer. The filtration plates were dried at 37° C. overnight. 50 μL of scintillation cocktail was added to each well. Radioactivity was determined using MicroBetaTriluxmicroplate scintillation counter.
Take `CN(CCCc1ccc(F)cc1)[C@H]1C[C@@H](c2nnn[nH]2)N(C(=O)C(c2ccccc2)c2ccccc2)C1`: the negative-log IC50 (pIC50) is 8.45.
Then `O=C(O)[C@@H]1C[C@H](NC(=O)N(c2ccccc2)c2ccccc2)CN1C(=O)C(c1ccccc1)c1ccccc1`, with 5.47; and `CN(CCc1ccccc1)[C@H]1C[C@@H](C(=O)O)N(C(=O)C(c2ccccc2)c2ccccc2)C1`, with 6.42.
As for `O=C(C(c1ccccc1)c1ccccc1)N1C[C@H](OCCCc2ccccc2)[C@H]1CO`, the figure is 5.69.
Then `CC(=O)N(CCCc1ccccc1)[C@H]1C[C@@H](C(=O)O)N(C(=O)C(c2ccccc2)c2ccccc2)C1`, with 6.62; and `O=C(C(c1ccccc1)c1ccccc1)N1C[C@@H](OCCCc2ccccc2)[C@H]1CO`, with 6.19.

The term pIC50 denotes the IC50 on a negative log10 scale, so that one unit is a factor of ten.
